Assay results: ChEMBL document CHEMBL5344430, “Targeting the Translocator Protein (18 kDa) in Cardiac Diseases: State of the Art and Future Opportunities” (J Med Chem, 2024)
One block for each compound: values may come before it.

Experiments:
physchem [1] = details: buffer, pH 7.4
Description: Lipophilicity, logD of compound at pH 7.4 by HPLC analysis

[2] = Lipophilicity, logD of the compound at pH 7.4; type: physicochemical; details: buffer
Translocator protein [3] = molecular target: T1, Translocator protein (Homo sapiens, UniProt P30536)
Description: Binding affinity to human mitochondrial TSPO

Translocator protein [4] = molecular target: Translocator protein (Rattus norvegicus, UniProt P16257)
Description: Binding affinity to rat TSPO receptor assessed as inhibition constant

Translocator protein [5] = molecular target: T1, Translocator protein; remark: listed apart in the source
Description: Binding affinity to human TSPO assessed as inhibition constant

Albumin = Albumin (Macaca fascicularis, UniProt A2V9Z4)
Description: Binding affinity to monkey albumin

physchem [6] = details: buffer, pH 6.8
Description: Lipophilicity, logD of compound at pH 6.8

T1 sequence (P30536 whole entry): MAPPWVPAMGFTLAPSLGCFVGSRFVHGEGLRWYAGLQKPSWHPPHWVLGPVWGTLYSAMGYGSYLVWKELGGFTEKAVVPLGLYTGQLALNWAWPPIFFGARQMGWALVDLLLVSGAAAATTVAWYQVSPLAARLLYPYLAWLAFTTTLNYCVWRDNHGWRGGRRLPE
Sequence of Translocator protein (Rattus norvegicus, UniProt P16257) (P16257 whole entry, looked up): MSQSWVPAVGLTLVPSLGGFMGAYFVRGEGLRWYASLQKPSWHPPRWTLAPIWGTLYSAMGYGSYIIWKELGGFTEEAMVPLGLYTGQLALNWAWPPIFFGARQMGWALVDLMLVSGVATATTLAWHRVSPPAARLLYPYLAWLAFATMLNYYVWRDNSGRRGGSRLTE
Sequence of Albumin (A2V9Z4 whole entry): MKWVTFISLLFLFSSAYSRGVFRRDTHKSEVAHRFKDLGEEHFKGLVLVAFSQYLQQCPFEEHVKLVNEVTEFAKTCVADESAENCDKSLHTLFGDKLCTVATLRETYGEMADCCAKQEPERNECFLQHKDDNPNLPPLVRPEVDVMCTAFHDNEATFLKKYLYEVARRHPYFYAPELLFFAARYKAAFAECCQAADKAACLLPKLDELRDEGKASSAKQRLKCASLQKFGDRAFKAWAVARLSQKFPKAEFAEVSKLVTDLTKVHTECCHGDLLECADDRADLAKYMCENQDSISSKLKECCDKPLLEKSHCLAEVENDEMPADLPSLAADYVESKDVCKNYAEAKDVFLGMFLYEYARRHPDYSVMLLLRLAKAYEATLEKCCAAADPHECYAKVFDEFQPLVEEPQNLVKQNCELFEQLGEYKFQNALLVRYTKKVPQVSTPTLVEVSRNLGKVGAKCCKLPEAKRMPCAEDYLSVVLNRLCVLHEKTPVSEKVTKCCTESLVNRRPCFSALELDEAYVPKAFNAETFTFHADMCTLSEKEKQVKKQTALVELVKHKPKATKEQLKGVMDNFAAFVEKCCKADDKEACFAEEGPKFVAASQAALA

Structure (SMILES): CC[C@@H](C)N([11CH3])C(=O)c1cc2ccccc2c(-c2ccccc2Cl)n1
- logD (physchem [1]): 3.97

Structure (SMILES): COc1ccccc1CN(C(=O)C[18F])c1cnccc1Oc1ccccc1
- Ki (Translocator protein [4]): 0.18 nM
- Ki (Translocator protein [5]): 0.997 nM
- Ki (Albumin): 0.3 nM
- logD (physchem [6]): 4.01

Structure (SMILES): CCCN(CCC)C(=O)Cc1c(-c2ccc(OCC[18F])cc2)nc2c(Cl)cc(Cl)cn12
- logD (physchem [1]): 3

Next, values leading:

- logD [2]: 3.01
- Ki (Translocator protein [3]): 2.2 nM
Structure (SMILES): CC(=O)N(Cc1ccccc1O[11CH3])c1cnccc1Oc1ccccc1

- logD (physchem [1]): 3.81
Structure (SMILES): COc1ccc(OCC[18F])c(CN(C(C)=O)c2cc(F)ccc2Oc2ccccc2)c1
